Test [1] concerns the target T1, human recombinant kinase full-length Akt1 (Homo sapiens, UniProt P31749).
T1 construct: human recombinant kinase full-length Akt1; His; purchased Invitrogen PV 3599; host or cells: insect cells
Put plainly: Akt1 kinase assay (TR-FRET). The test is classed as biochemical. The following applies: 10 μM ATP, 1 μM peptide substrate, 60 min at 22° C.; read-out: IC50 Akt1 Biological Assay 1.0). From the text:
Biological Assay 1.0: Akt1 Kinase Assay
Akt1 inhibitory activity of compounds of the present invention may be quantified employing the Akt1 TR-FRET assay as described in the following paragraphs.
His-tagged human recombinant kinase full-length Akt1 expressed in insect cells was purchased form Invitrogen (part number PV 3599). As substrate for the kinase reaction the biotinylated peptide biotin-Ahx-KKLNRTLSFAEPG (C-terminus in amide form) was used which can be purchased e.g. from the company Biosynthan GmbH (Berlin-Buch, Germany).
(§1) For the assay 50 nl of a 100 fold concentrated solution of the test compound in DMSO was pipetted into a black low volume 384 well microtiter plate (Greiner Bio-One, Frickenhausen, Germany), 2 μl of a solution of Akt1 in assay buffer [50 mM TRIS/HCl pH 7.5, 5 mM MgCl2, 1 mM dithiothreitol, 0.02% (v/v) Triton X-100 (Sigma)] were added and the mixture was incubated for 15 min at 22° C. to allow pre-binding of the test compounds to the enzyme before the start of the kinase reaction. Then the kinase reaction was started by the addition of 3 μl of a solution of adenosine-tri-phosphate (ATP, 16.7 μM=>final conc. in the 5 μl assay volume is 10 μM) and substrate (1.67 μM=>final conc. in the 5 μl assay volume is 1 μM) in assay buffer and the resulting mixture was incubated for a reaction time of 60 min at 22° C. The concentration of Akt1 in the assay was adjusted depending of the activity of the enzyme lot and was chosen appropriate to have the assay in the linear range, typical enzyme concentrations were in the range of about 0.05 ng/μl (final conc. in the 5 μl assay volume).
(§2) The reaction was stopped by the addition of 5 μl of a solution of HTRF detection reagents (200 nM streptavidine-XL665 [Cisbio] and 1.5 nM anti-phosho-Serine antibody [Millipore, cat. #35-001] and 0.75 nM LANCE Eu-W 1024 labeled anti-mouse IgG antibody [Perkin Elmer]) in an aqueous EDTA-solution (100 mM EDTA, 0.1% (w/v) bovine serum albumin in 50 mM HEPES/NaOH pH 7.5). The resulting mixture was incubated 1 h at 22° C. to allow the binding of the biotinylated phosphorylated peptide to the streptavidine-XL665 and the antibodies. Subsequently the amount of phosphorylated substrate was evaluated by measurement of the resonance energy transfer from the anti-mouse-IgG-Eu-Chelate to the streptavidine-XL665. Therefore, the fluorescence emissions at 620 nm and 665 nm after excitation at 350 nm was measured in a HTRF reader, e.g. a Rubystar (BMG Labtechnologies, Offenburg, Germany) or a Viewlux (Perkin-Elmer). The ratio of the emissions at 665 nm and at […] was taken as the measure for the amount of phosphorylated substrate. The data were normalised (enzyme reaction without inhibitor=0% inhibition, all other assay components but no enzyme=100% inhibition). Normally test compound were tested on the same microtiter plate at 10 different concentrations in the range of 20 μM to 1 nM (20 μM, 6.7 μM, 2.2 μM, 0.74 μM, 0.25 μM, 82 nM, 27 nM, 9.2 nM, 3.1 nM and 1 nM, dilution series prepared before the assay at the level of the 100 fold conc. stock solutions by serial 1:3 dilutions) in duplicate values for each concentration and 1050 values were calculated by a 4 parameter fit using an inhouse software.
In general terms: In TR-FRET formats the signal depends on donor and acceptor labels being close together.

The subject of test [2] is Akt phosphorylation (Ser473) in MCF7 cells. Put plainly: Cellular PI3K/Akt pathway assay (Phospho-Akt1 (Ser473) sandwich ELISA). The test is classed as cell-based. As to conditions: Homo sapiens, β-Heregulin stimulated, 48 h incubation, read-out: IC50 p-Akt (Biological Assay 5.0).
Procedure: Biological Assay 5.0: Cellular PI3K/Akt Pathway Assay
In order to study the cellular activity of the compounds according to the present invention, an Enzyme Linked Immunosorbent Assay (ELISA)-based assay may be used to investigate the inhibitory effect on Akt phosphorylation.
The ELISA Kit detects endogenous levels of phosphorylated Akt protein. […] After incubation with cell lysates, the coated antibody captures the phosphorylated Akt protein. […] The magnitude of optical density for this developed color is proportional to the quantity of phosphorylated Akt protein. MCF7 cells (ATCC HTB-22) are seeded into 96 well fate bottom plates at a density of 10000 cells/well. 24 hours after seeding, the cells are serum starved using low-serum medium (IMEM media including 0.1% charcoal treated FCS (FCS: fetal calf serum)). After 24 hours 1 μl each of the compound dilutions (test compounds were dissolved as 10 mM solutions in dimethylsulfoxide (DMSO) and subsequently diluted) are added into each well of the 96 well plates and incubated for 48 h at 37° C. in a humidified athmosphere containing 5% CO2. To stimulate Akt phosphorylation, β-Heregulin (20 ng/mL β-HRG) is added in parallel to the compounds. Wells containing unstimulated control cells (no β-Heregulin stimulation) are incubated with or without the diluted compound. Wells containing untreated control cells (no compound) are filled with medium containing 0.5% v:v DMSO and are or are not stimulated with 3-Heregulin.
Cells are harvested and lysed with brief sonification in 1× cell lysis buffer (20 mM Tris (pH7.5), 150 mM NaCl, 1 mM ethylene diaminetetraacetate (EDTA), 1 mM ethylene glycolbis(2-aminoethyl)-N,N,N′,N′-tetraacetic acid (EGTA), 1 vol % Triton X-100, 2.5 mM sodium pyrophosphate, 1 mM β-glycerolphosphate, 1 mM Na3VO4, 1 μg/mL leupeptin). The lysate is centrifuged for 10 min. at 4° C. and the supernatant is transferred to a new tube. […] The absorbance is measured at λ=450 nm (Wallac Victor2; Perkin Elmer, USA) within 30 min. after adding the STOP solution. […]
For test [3], the target named is T2, human recombinant kinase full-length Akt2 (Homo sapiens, UniProt P31751).
T2 construct: human recombinant kinase full-length Akt2; His; purchased Invitrogen PV 3975; host or cells: insect cells
Put plainly: Akt2 kinase assay (TR-FRET). The test is classed as biochemical. As to conditions: Akt2 activated by PDK1, 10 μM ATP, 1 μM peptide substrate, 60 min at 22° C.; read-out: IC50 Akt2 (Biological Assay 2.0).
From the text: Biological Assay 2.0: Akt2 Kinase Assay
Akt2 inhibitory activity of compounds of the present invention was quantified employing the Akt2 TR-FRET assay as described in the following paragraphs.
as §1, with “His-tagged human recombinant kinase full-length Akt2 expressed in insect cells and activated by PDK1 was purchased form Invitrogen (part number PV 3975). As substrate for the kinase reaction the biotinylated peptide biotin-Ahx-KKLNRTLSFAEPG (C-terminus in amide form) was used which can be purchased e.g. from the company Biosynthan GmbH (Berlin-Buch, Germany). For” for “For”, “Akt2” for “Akt1”, “0.2” for “0.05”
as §2, with “a TR-FRET” for “a HTRF”, “inhibition).” for “inhibition). Normally test compound were tested on the same microtiter plate at 10 different concentrations in the range of 20 μM to 1 nM (20 μM, 6.7 μM, 2.2 μM, 0.74 μM, 0.25 μM, 82 nM, 27 nM, 9.2 nM, 3.1 nM and 1 nM, dilution series prepared before the assay at the level of the 100 fold conc. stock solutions by serial 1:3 dilutions) in duplicate values for each concentration and 1050 values were calculated by a 4 parameter fit using an inhouse software.”

Bounds are passed on as bounds.

The text below walks through data of US20130310362A1, “FUSED PYRIMIDINES” (BAYER PHARMA AKTIEGESELLSCHAFT, priority 2009, published 2013).

T1 sequence (P31749 whole entry): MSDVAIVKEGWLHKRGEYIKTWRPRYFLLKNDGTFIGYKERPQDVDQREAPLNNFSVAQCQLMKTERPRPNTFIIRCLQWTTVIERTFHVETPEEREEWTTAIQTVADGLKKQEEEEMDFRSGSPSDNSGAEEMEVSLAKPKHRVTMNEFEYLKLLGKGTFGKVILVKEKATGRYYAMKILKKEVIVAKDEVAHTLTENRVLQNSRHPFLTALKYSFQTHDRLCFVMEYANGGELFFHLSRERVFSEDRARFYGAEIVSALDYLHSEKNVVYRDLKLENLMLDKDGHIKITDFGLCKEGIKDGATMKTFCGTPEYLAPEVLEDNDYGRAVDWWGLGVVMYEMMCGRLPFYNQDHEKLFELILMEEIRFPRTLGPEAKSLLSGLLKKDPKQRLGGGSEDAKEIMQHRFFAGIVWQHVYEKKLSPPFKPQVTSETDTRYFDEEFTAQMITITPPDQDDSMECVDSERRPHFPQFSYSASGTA
T2 sequence (P31751 whole entry): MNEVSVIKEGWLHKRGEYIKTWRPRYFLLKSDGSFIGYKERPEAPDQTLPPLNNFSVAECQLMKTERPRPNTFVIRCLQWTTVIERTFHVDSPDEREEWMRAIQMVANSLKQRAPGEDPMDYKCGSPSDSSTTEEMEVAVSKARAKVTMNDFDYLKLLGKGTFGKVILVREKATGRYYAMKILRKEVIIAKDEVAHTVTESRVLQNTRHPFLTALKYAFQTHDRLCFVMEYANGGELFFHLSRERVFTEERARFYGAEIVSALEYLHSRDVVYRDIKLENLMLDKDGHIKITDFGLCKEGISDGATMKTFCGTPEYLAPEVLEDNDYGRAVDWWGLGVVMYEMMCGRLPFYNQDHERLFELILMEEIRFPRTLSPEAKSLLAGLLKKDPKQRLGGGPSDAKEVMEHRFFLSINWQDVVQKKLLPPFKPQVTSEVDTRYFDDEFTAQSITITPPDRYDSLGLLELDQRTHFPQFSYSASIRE

With `Cc1nc(-c2ccc(CN3CCC(c4n[nH]c(-c5ccccn5)n4)CC3)cc2)c(-c2ccccc2)c2nccn12` [Example 1.0, 5-methyl-8-phenyl-7-{4-[4-(5-pyridin-2-yl-1H-[1,2,4]triazol-3-yl)-piperidin-1-ylmethyl]-phenyl}-imidazo[1,2-c]pyrimidine], the IC50 (as a rule, the concentration that inhibits the measured activity by half) in test [1] was 4 nM; in test [2], below 50 nM; in test [3], 53 nM.

As for `c1ccc(-c2c(-c3ccc(CN4CCC(c5n[nH]c(-c6ccccn6)n5)CC4)cc3)ncn3ccnc23)cc1` [Example 2.0, 8-phenyl-7-{4-[4-(5-pyridin-2-yl-1H-[1,2,4]triazol-3-yl)-piperidin-1-ylmethyl]-phenyl}-imidazo[1,2-c]pyrimidine], the results for the IC50 in test [1], in test [2] and in test [3] were 8 nM, 8 nM and 42 nM, respectively.
